Reference: US20070172957A1, “Methods of identifying anti-inflammatory macrolides” (TAISHO PHARMACEUTICAL CO., LTD., priority 2004, published 2007)

Tested on: A549 cells
Assay: A549 microarray comparing macrolides with arachidonic acid pathway inhibitors, with IL-1β stimulation (Appendix C, Tables 6-9), and correlation analysis
Type: cell-based
Description: One inhibitor, triacsin C, acts on AA biosynthesis by inhibiting arachidonyl CoA synthetases, blocking the incorporation of free AA into phospholipids. Triacsin C is reasonably specific for AA compared to other fatty acids. However, triacsin C structurally resembles AA so it also may interfere with other steps in the AA pathway. Indomethacin is an inhibitor of COX1 and COX2 enzyme activities and therefore specifically blocks metabolism of AA into prostaglandins. […] It inhibits transcription of PLA2, and transcriptionally and post-transcriptionally regulates COX1 and COX2 activities. Dexamethasone has additional effects unrelated to AA through binding with the glucocorticoid receptor to glucocortcoid response elements.
A549 cells were pre-incubated overnight (17 hours) with macrolides (10 μM FMA-9045, 50 μM clarithromycin, 50 μM roxithromycin, 50 μM josamycin) and 15 μM triacsin C, and pre-incubated 2 hours with 100 nM indomethacin and 100 nM dexamethasone. All cells then were stimulated for 4 hours with IL-1β, because the activation of PLA2 and downstream signaling events generally requires an inflammatory stimulus. The various treatment conditions are shown below in Table 4. Following macrolide and inhibitor pre-treatment and IL-1 stimulation, the cells were lysed, total RNA was collected, and the poly-A+ mRNA fraction was purified. The resulting microarray data (Appendix C) were analyzed using the methods described in the Examples above.
The tables in Appendix C represent the effects of the arachidonic acid pathway inhibitors (“AA pathway inhibitors”) and the effects of the macrolides (“IL1+macrolide effects”). […] In both tables in Appendix C, the genes that meet this criterion (≧1.3 min fold change) are indicated in bold.
Quantitative analysis was done to determine how well the responses to the different AA pathway inhibitors correlated. The correlation values were assigned a p-value to provide statistical confidence to the correlation value. Correlation between experiments, across all spots showing good detection, was assessed by cosine vector angle to generate the data shown in Tables 7-9. A correlation coefficient close to one indicates strong correlation, whereas a value near zero indicates no correlation. P-values for each correlation coefficient were estimated based on a Fisher permutation test. In this test, each spot's expression ratios were randomly re-ordered across experiments and the degree of correlation between experiments was then reassessed. This was done repeatedly.

[1] = A549 cells, +IL1b +/- inhibitor

COc1ccc2c(c1)c(CC(=O)O)c(C)n2C(=O)c1ccc(Cl)cc1 [indomethacin]
Number of differentially expressed genes also differential in response to triacsin C (A549 + IL-1β, of the genes regulated by the labelled drug): 36
Total # Differential Genes (95% confidence) (A549, IL1 vs IL1 + drug, threshold 1.3, macrolides 50 μM (FMA 10 μM), triacsin C 15 μM, indomethacin and dexamethasone 100 nM): 37
min fold change, SpotID 46796 STC1 (stanniocalcin 1) [1]: 1.34
min fold change, SpotID 46950 SERPINA3 (serine (or cysteine) proteinase inhibitor, clade A, member 3) [1]: 1.28
min fold change, SpotID 46985 RIPK2 (RIP2, RICK; receptor-interacting serine-threonine kinase 2) [1]: 1.85
min fold change, SpotID 47155 TNFAIP6 (tumor necrosis factor, alpha-induced protein 6) [1]: 1.17
min fold change, SpotID 47166 SERPINA6 (serine (or cysteine) proteinase inhibitor, clade A, member 6) [1]: 1.05
min fold change, SpotID 47193 STAT3 (signal transducer and activator of transcription 3) [1]: 1.25
min fold change, SpotID 47332 SERPINB3 (serine (or cysteine) proteinase inhibitor, clade B (ovalbumin), member 3) [1]: 1.25
min fold change, SpotID 47444 TKT (transketolase (Wernicke-Korsakoff syndrome)) [1]: 1.00
min fold change, SpotID 47569 STAT3 (signal transducer and activator of transcription 3) [1]: 1.69
min fold change, SpotID 47697 TNFRSF6B (DcR3; tumor necrosis factor receptor superfamily, member 6b, decoy) [1]: 1.52
min fold change, SpotID 47698 PTPRJ (protein tyrosine phosphatase, receptor type, J) [1]: 1.31
min fold change, SpotID 47987 THBS1 (thrombospondin 1) [1]: 1.32
min fold change, SpotID 48050 RPS6KA2 (ribosomal protein S6 kinase, 90 kD, polypeptide 2) [1]: 1.00
min fold change, SpotID 48234 PTPRZ1 (PTP zeta; protein tyrosine phosphatase, receptor-type, Z polypeptide 1) [1]: 1.48
min fold change, SpotID 48239 TLN1 (talin 1) [1]: 1.51
min fold change, SpotID 48288 TRAF5 (TNF receptor-associated factor 5) [1]: 1.40
min fold change, SpotID 48359 RIPK1 (receptor (TNFRSF)-interacting serine-threonine kinase 1) [1]: 1.00
min fold change, SpotID 48392 RIPK1 (receptor (TNFRSF)-interacting serine-threonine kinase 1) [1]: 1.00
min fold change, SpotID 48395 TNFRSF7 (CD27; tumor necrosis factor receptor superfamily, member 7) [1]: 1.55
min fold change, SpotID 48485 UCP1 (uncoupling protein 1 (mitochondrial, proton carrier)) [1]: 1.32
min fold change, SpotID 48500 RPL13A (ribosomal protein L13a) [1]: 1.06
min fold change, SpotID 48594 RPS6KA2 (ribosomal protein S6 kinase, 90 kD, polypeptide 2) [1]: 1.03
min fold change, SpotID 48603 TEAD4 (TEA domain family member 4) [1]: 1.72
min fold change, SpotID 49330 TNFRSF7 (CD27; tumor necrosis factor receptor superfamily, member 7) [1]: 1.44
min fold change, SpotID 49899 WWOX (WW domain containing oxidoreductase) [1]: 1.00
min fold change, SpotID 49901 TROAP (trophinin associated protein (tastin)) [1]: 1.01
min fold change, SpotID 50379 TNFRSF6 (FAS; tumor necrosis factor receptor superfamily, member 6) [1]: 1.38
min fold change, SpotID 50428 RPLP0 (ribosomal protein, large, P0) [1]: 1.00
min fold change, SpotID 50491 TNFRSF6B (DcR3; tumor necrosis factor receptor superfamily, member 6b, decoy) [1]: 1.17
wtd means, SpotID 46796 STC1 (stanniocalcin 1) [1]: 1.47
wtd means, SpotID 46950 SERPINA3 (serine (or cysteine) proteinase inhibitor, clade A, member 3) [1]: 1.41
wtd means, SpotID 46985 RIPK2 (RIP2, RICK; receptor-interacting serine-threonine kinase 2) [1]: 2.23
wtd means, SpotID 47155 TNFAIP6 (tumor necrosis factor, alpha-induced protein 6) [1]: 1.23
wtd means, SpotID 47166 SERPINA6 (serine (or cysteine) proteinase inhibitor, clade A, member 6) [1]: 1.66
wtd means, SpotID 47193 STAT3 (signal transducer and activator of transcription 3) [1]: 1.64
wtd means, SpotID 47332 SERPINB3 (serine (or cysteine) proteinase inhibitor, clade B (ovalbumin), member 3) [1]: 1.33
wtd means, SpotID 47444 TKT (transketolase (Wernicke-Korsakoff syndrome)) [1]: 0.82
wtd means, SpotID 47569 STAT3 (signal transducer and activator of transcription 3) [1]: 2.00
wtd means, SpotID 47697 TNFRSF6B (DcR3; tumor necrosis factor receptor superfamily, member 6b, decoy) [1]: 1.84
wtd means, SpotID 47698 PTPRJ (protein tyrosine phosphatase, receptor type, J) [1]: 1.38
wtd means, SpotID 47987 THBS1 (thrombospondin 1) [1]: 0.68
wtd means, SpotID 48234 PTPRZ1 (PTP zeta; protein tyrosine phosphatase, receptor-type, Z polypeptide 1) [1]: 1.77
wtd means, SpotID 48239 TLN1 (talin 1) [1]: 1.57
wtd means, SpotID 48288 TRAF5 (TNF receptor-associated factor 5) [1]: 1.96
wtd means, SpotID 48359 RIPK1 (receptor (TNFRSF)-interacting serine-threonine kinase 1) [1]: 1.34
wtd means, SpotID 48392 RIPK1 (receptor (TNFRSF)-interacting serine-threonine kinase 1) [1]: 1.35
wtd means, SpotID 48395 TNFRSF7 (CD27; tumor necrosis factor receptor superfamily, member 7) [1]: 1.76
wtd means, SpotID 48485 UCP1 (uncoupling protein 1 (mitochondrial, proton carrier)) [1]: 1.70
wtd means, SpotID 48500 RPL13A (ribosomal protein L13a) [1]: 1.23
wtd means, SpotID 48603 TEAD4 (TEA domain family member 4) [1]: 2.19
wtd means, SpotID 49330 TNFRSF7 (CD27; tumor necrosis factor receptor superfamily, member 7) [1]: 1.90
wtd means, SpotID 49899 WWOX (WW domain containing oxidoreductase) [1]: 1.07
wtd means, SpotID 49901 TROAP (trophinin associated protein (tastin)) [1]: 0.93
wtd means, SpotID 50379 TNFRSF6 (FAS; tumor necrosis factor receptor superfamily, member 6) [1]: 1.57
wtd means, SpotID 50428 RPLP0 (ribosomal protein, large, P0) [1]: 0.77
wtd means, SpotID 50491 TNFRSF6B (DcR3; tumor necrosis factor receptor superfamily, member 6b, decoy) [1]: 1.60
FADS1 expression (A549 cells, microarray): not
